{"source": "patent US11364239B2", "about": "(priority 2020, dated 2022)", "key": {"[1]": {"test_system": "Aflatoxin B1-exposed rats", "conditions": "rat, in vivo"}, "[2]": {"test_system": "Aflatoxin B1-exposed rats", "conditions": "rat, in vivo", "remark": "listed apart in the source"}, "[3]": {"test_system": "Cyp enzymes (Cyp2b2, Cyp1a1, Cyp3a18, Cyp3a9, Cyp2d2, Cyp2c7, Cyp2a3, Cyp2d1, Cyp2c24, Cyp4a2)", "conditions": "in vivo"}, "rats": {"test_system": "rats", "conditions": "rat, in vivo"}}, "note": "“Also recorded” adds a separate entry of the source."}
{"compound": "CC(C)CN(C[C@@H](O)[C@H](Cc1ccccc1)NC(=O)O[C@H]1CCOC1)S(=O)(=O)c1ccc(N)cc1", "note": "[Amprenavir, [(3S)-oxolan-3-yl] N-[(2S,3R)-4-[(4-aminophenyl)sulfonyl-(2-methylpropyl)amino]-3-hydroxy-1-phenylbutan-2-yl]carbamate]", "values": [{"measurement": "final weights (indexed weight)", "setting": "[1]", "result": "no pairwise comparisons showed significant differences"}, {"measurement": "liver fibrosis, as assessed by Sirius Red staining", "setting": "[1]", "result": "decreased liver fibrosis"}, {"measurement": "liver hydroxyproline content", "setting": "[1]", "result": "trend towards decreased liver hydroxyproline content"}, {"measurement": "liver hydroxyproline levels (a measure of liver fibrosis)", "setting": "[1]", "result": "trends towards decreased hydroxyproline"}, {"measurement": "overall Aflatoxin B1 mitigation activity (liver histopathology: hepatocellular BrdU staining, serum transaminases, hydroxyproline levels)", "setting": "[1]", "result": "excellent mitigation activity; also recorded: most efficacious drug"}, {"measurement": "serum ALT levels", "setting": "[1]", "result": "significantly lower"}, {"measurement": "serum transaminases", "setting": "[1]", "result": "lower serum transaminases"}, {"measurement": "survival", "setting": "[1]", "result": "improved survival"}, {"measurement": "effect on Aflatoxin B1-induced reduction in weight gain", "setting": "[2]", "result": "no effect"}, {"measurement": "liver hydroxyproline", "setting": "[2]", "result": "trends towards reducing"}, {"measurement": "morphometric measurement of liver fibrosis", "setting": "[2]", "result": "trends towards reducing"}, {"measurement": "overall effects on Aflatoxin B1-induced liver injury", "setting": "[2]", "result": "significant or trends towards significant beneficial effects"}, {"measurement": "serum ALT", "setting": "[2]", "result": "reduced serum ALT"}, {"measurement": "expression of Cyp enzymes in rat livers (transcriptomics)", "setting": "[3]", "result": "greatly upregulated"}]}
{"compound": "c1cn2cc(-c3ccc4cn[nH]c4c3)nc(Nc3ccc(N4CCOCC4)cc3)c2n1", "note": "[Entospletinib]", "values": [{"measurement": "mitigating Aflatoxin B1 induced toxicity or injury", "setting": "[1]; po", "result": "only mildly efficacious"}]}
{"compound": "CCOC(=O)[C@H](CCc1ccccc1)N[C@@H](C)C(=O)N1Cc2ccccc2C[C@H]1C(=O)O", "note": "[Quinapril]", "values": [{"measurement": "beneficial effects on Aflatoxin B1-induced growth impairment or hepatotoxicity", "setting": "[1]; po", "result": "did not show beneficial effects"}]}
{"compound": "Aflatoxin B1", "values": [{"measurement": "food intake", "setting": "rats", "result": "comparable food intake"}, {"measurement": "hepatocellular BrdU staining", "setting": "rats", "result": "variable"}, {"measurement": "liver histopathology", "setting": "rats", "result": "abnormal liver histopathology"}, {"measurement": "liver hydroxyproline", "setting": "rats", "result": "significant increase"}, {"measurement": "serum ALT", "setting": "rats", "result": "reduced Serum ALT"}, {"measurement": "serum transaminases", "setting": "rats", "result": "trend towards increased serum transaminases"}, {"measurement": "tissue hydroxyproline", "setting": "rats", "result": "mild elevation"}, {"measurement": "weight gain", "setting": "rats", "result": "decreased weight gain"}]}
{"compound": "Cyp3cide", "values": [{"measurement": "reduction of Aflatoxin B1-induced liver injury", "setting": "[1]; po, 50 mg/kg", "result": "did not reduce"}]}
